The target in data set [1] is T1, ΔF508-CFTR (Homo sapiens, UniProt P13569, DEL508-508).
T1 construct: Here we studied native CFTR, SYVN1 and AMFR gene products in a relevant CF airway epithelial cell line; endogenous in cells; host or cells: CFBE41o- cells (also as polarized ALI cultures)
Briefly: CFTR ubiquitination measurement (anti-HA IP, anti-ubiquitin blot). In kind it is cell-based. To be noted: treatment alone; HeLa-ΔF508-CFTR-HA cells; 72 hrs; MG-132 10 μM last hour; relative to siScr. On the procedure:
Cells were treated with 10 μM MG-132 in the last 1-hour of incubation, and then lysed in lysis buffer (1% Triton, 25 mM Tris pH 7.4, 150 mM NaCl, protease inhibitors (cOmplete™, mini, EDTA-free, Roche), 5 mM N-ethylmaleimide (NEM) and 20 μM MG-132) for 30 min at 4° C. The lysates were centrifuged at 14,000 rpm for 20 min at 4° C., and the supernatant quantified by BCA Protein Assay kit (Pierce). CFTR was precipitated with the anti-HA antibody. The immunoprecipitates were analyzed by immunoblotting with anti-Ub and anti-HA antibodies. CFTR ubiquitination level with molecular masses >180 kDa was measured by densitometry and normalized for the CFTR level in the precipitate.
Immunoprecipitation (IP) experiments were performed in HeLa cells stably expressing ΔF508-CFTR-HA. To IP ΔF508-CFTR, cells were lysed (as described above), and supernatant (20-50 μg of protein) was incubated with either anti-HA (to IP CFTR) or anti-AMFR for 1 h at 4° C., followed by incubation with protein G-agarose (Invitrogen) for 1 h at 4° C. Immunoprecipitates were washed 4 times with lysis buffer and eluted in 6× sample-SDS buffer. Samples were analyzed by immunoblotting as described above.

Data set [2] relates to ΔF508-CFTR. To be noted: primary CF airway epithelia; reference 18; cited from earlier work.

The text below walks through data of patent publication US20160108406A1, “METHOD OF REGULATING CFTR EXPRESSION AND PROCESSING” (UNIVERSITY OF IOWA RESEARCH FOUNDATION, priority 2014, published 2016).

T1 sequence (P13569 with tags, fused parts or gaps DEL508-508): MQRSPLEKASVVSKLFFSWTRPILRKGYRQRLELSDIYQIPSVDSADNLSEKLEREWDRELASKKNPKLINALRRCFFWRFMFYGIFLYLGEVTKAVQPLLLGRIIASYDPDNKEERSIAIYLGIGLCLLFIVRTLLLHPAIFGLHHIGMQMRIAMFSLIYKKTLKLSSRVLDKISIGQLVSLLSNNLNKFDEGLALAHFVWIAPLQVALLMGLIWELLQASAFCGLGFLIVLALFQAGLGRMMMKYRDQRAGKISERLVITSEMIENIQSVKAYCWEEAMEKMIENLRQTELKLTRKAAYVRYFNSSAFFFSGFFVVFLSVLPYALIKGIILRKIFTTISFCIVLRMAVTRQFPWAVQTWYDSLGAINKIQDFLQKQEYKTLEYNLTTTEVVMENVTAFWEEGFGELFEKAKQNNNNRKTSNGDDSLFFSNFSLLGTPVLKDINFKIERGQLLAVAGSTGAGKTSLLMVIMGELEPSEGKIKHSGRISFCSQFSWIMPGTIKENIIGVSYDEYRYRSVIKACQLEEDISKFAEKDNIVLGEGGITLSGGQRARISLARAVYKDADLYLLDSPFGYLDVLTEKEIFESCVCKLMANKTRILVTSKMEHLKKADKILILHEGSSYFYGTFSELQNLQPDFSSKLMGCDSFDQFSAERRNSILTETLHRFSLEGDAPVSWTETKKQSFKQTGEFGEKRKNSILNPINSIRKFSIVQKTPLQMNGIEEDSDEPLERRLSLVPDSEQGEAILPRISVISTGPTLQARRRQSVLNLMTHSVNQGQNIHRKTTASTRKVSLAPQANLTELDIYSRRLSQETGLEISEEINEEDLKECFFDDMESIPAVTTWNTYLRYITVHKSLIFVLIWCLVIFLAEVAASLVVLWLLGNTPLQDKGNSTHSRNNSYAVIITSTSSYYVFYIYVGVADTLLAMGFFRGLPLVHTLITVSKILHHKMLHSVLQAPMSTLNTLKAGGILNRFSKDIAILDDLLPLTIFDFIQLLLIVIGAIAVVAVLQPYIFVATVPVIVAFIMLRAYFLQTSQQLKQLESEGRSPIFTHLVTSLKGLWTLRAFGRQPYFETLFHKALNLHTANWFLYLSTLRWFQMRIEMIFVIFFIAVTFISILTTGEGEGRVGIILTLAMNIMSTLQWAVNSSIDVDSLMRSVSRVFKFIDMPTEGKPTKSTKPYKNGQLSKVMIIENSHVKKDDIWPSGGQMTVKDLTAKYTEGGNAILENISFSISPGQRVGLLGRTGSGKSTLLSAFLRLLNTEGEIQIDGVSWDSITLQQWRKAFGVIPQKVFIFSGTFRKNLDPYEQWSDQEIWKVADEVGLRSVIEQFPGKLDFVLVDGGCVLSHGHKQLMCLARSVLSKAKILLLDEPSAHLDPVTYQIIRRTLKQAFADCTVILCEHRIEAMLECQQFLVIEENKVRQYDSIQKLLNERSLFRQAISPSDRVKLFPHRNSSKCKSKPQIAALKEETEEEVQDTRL

As to `O=C(Nc1ncc(C(c2ccccc2Cl)N2CCC(O)C2)s1)C1(c2ccc3c(c2)OCO3)CC1` (centres unmarked) [C18, 1-(benzo[d][1,3]dioxol-5-yl)-N-(5-((2-chlorophenyl)(3-hydroxypyrrolidin-1-yl)methyl)thiazol-2-yl)cyclopropanecarboxamide], the ΔF508-CFTR ubiquitination result at ΔF508-CFTR [1] is listed as “little impact on ΔF508-CFTR ubiquitination levels”.

As to “miR-138 mimic: synthetic nucleic acid with miR-138-like activity, sense SEQ ID NO: 4, antisense SEQ ID NO: 5”, in the data set on ΔF508-CFTR [2], the “ΔF508-CFTR expression and Cl− transport” value was “concomitantly increased ΔF508-CFTR expression and Cl^− transport”.
